How the values were obtained:
[1] = tested on: inflamed joint induced by carrageenan; details: cited from earlier work
[2] = tested on: paw edema induced by carrageenan; assay: Paw edema carrageenan-induced inflammation; format: in vivo, rat; details: for volume of paw edema (mean Δml ± s.e. vs basal paw volume): 60' after carrageenan, po 1 h before carrageenan, male Wistar rats; for volume of paw edema (mean Δml ± s.e. vs basal paw volume) / reduction of edema vs. the control vehicle (inhibition): Compound A 30 mg/kg, indomethacin 5 mg/kg; for reduction of edema vs. the control vehicle (inhibition): 4 h after carrageenan injection, oral
Excerpt: The anti-inflammatory activity of the α-aminoamide compounds of formula (I) have proven effective in a rat model of inflammation induced by carrageenan injection.
The potential anti-inflammatory effect of (S)-(+)-2-[4-(2-fluorobenzyloxy)-benzylamino]-propanamide (“compound A”) was investigated in the rat model of inflammatory acute pain induced by subplantar injection of carrageenan. Itraplantar injection of carrageenan elicit a time-dependent increase in paw volume.
Male Wistar rats of 175-200 grams were used. The left hind paw was injected with 100 μl of carrageenan (2% w/v in saline). Compound A (30 mg/kg), indomethacin (5 mg/kg), or control vehicle (such as distilled water) were orally administered 1 h before carrageenan injection. The paw volume was measured with a plethysmometer (Ugo Basile) immediately before (basal) and 1, 2, 3, 4 and 5 h after the carrageenan injection.

[3] = tested on: KCl-evoked SP release from spinal cord superfused synaptosomes; assay: Substance P (SP) release from rat spinal cord synaptosomes; format: cell-based; details: KCl (35 mM) evoked, RIA, concentrations 0.1 to 30 μM, read-out: IC50 for reducing evoked SP release
Experimental: Male adult Sprague-Dawley rats were used. Following decapitation, the spinal cord was removed and homogenized in sucrose buffer 0.32 M pH 7.4. Samples were centrifuged at 12000 g for 20 minutes and the synaptosomal fraction was resuspended in physiological buffer. SP release from spinal cord superfused synaptosomes was induced by KCl (35 mM) and measured by RIA method (see Lee C M. et al. (1980) “The development and application of a novel N-terminal directed substance P antiserum”, Life Science 27 (7):535-543).

SMILES	mechanical hyperalgesia (in words) [1]	swelling and stiffness of the inflamed joint (in words) [1]	volume of paw edema (mean Δml ± s.e. vs basal paw volume) [2] [mL]	reduction of edema vs. the control vehicle (inhibition) [2]	paw edema formation (in words) ([2]; Compound A 30 mg/kg oral, 1-5 h after carrageenan)	IC50 [3] [nM]
Cc1cccc(C)c1OCC(C)N (stereo not shown) [mexeletine]	able to reverse the mechanical hyperalgesia	without any effect				
C[C@H](NCc1ccc(OCc2ccccc2F)cc1)C(N)=O [Compound A, (S)-(+)-2-[4-(2-fluorobenzyloxy)-benzylamino]-propanamide]			0.19 ± 0.03	40%	prevented paw edema formation at all time points considered	2120
C[C@@H](CN1CC[C@@]2(C)c3cccc(O)c3C[C@@H]1C2(C)C)OCc1ccccc1 [crobenetine]	able to reverse the mechanical hyperalgesia	without any effect				
COc1ccc2c(c1)c(CC(=O)O)c(C)n2C(=O)c1ccc(Cl)cc1 [Indomethacin, indomethacin]			0.29 ± 0.04	about 50%		
